Reference: PMC7998731, “Pharmacokinetic Characterization of Supinoxin and Its Physiologically Based Pharmacokinetic Modeling in Rats” (Pharmaceutics, 2021)

Assay: Transport of supinoxin in Caco-2 cells (bidirectional permeability)
Format: in vitro ADME
Details: human, supinoxin 1 µM
Description: The Caco-2 intestinal epithelial cell line (ATCC® HTB-37™) purchased from American Type Culture Collection (ATCC, Manassas, VA, USA) was cultured and maintained in Dulbecco’s modified Eagle medium (DMEM) containing 10% fetal bovine serum, 100 U/mL penicillin, and 0.1 mg/mL streptomycin under humidified atmosphere of air containing 5% CO2 at 37 °C. Caco-2 cells were seeded at a density of 6 × 10^4 cells/cm^2 onto polyethylene membranes of transwell plates (Corning Costar, Cambridge, MA, USA). The medium was replaced on alternate days after seeding, and cell monolayers were used for the transport assay after approximately 21 days of culture. Trans-epithelial electrical resistance (TEER) values of the Caco-2 monolayers were measured with an EVOM epithelial tissue voltmeter (World Precision Instruments, Sarasota, FL, USA), and cells with TEER greater than 300 Ω were used for the experiments. Cell monolayers were first rinsed three times with transport buffer (Hank’s balanced salt solution supplemented with 10 mM HEPES) and preincubated for 30 min at 37 °C. To measure the bidirectional transport of the compound, a transport buffer containing 1 µM supinoxin was added to the respective donor compartments (the apical and basolateral sides for absorptive and secretory transport assays, respectively). Samples (200 µL) were collected at 30, 60, 90, and 120 min, and an identical volume of fresh buffer was replenished. The samples were then subjected to LC–MS/MS analysis and concentrations of the samples were determined. After the final sampling from both compartments, we measured the TEER of the monolayers to ensure no possible adverse effects induced by the experimental procedures and then estimated the apparent permeability coefficient of supinoxin from the compound’s time-dependent accumulation (dQ/dt) in the receiver compartments using the following equation: Papp = dQ/dt × 1/(A × C0)(1) where dQ/dt is the rate of transport, A is the surface area of the filter, and C0 is the initial concentration in the donor chamber.

Molecule `COCCc1ccc(OCC(O)CNC(C)C)cc1` (centres unmarked) [metoprolol, reference compound] has a Papp A→B at 120 min, 1 µM (Caco-2, Caco-2 cell monolayers, read-out: apical to basolateral apparent permeability coefficient) of 15.5 ± 0.8 ×10⁻⁶ cm/s and a Papp B→A at 120 min, 1 µM (Caco-2 cell monolayers, read-out: basolateral to apical apparent permeability coefficient) of 15.7 ± 0.8 ×10⁻⁶ cm/s.
